Patent US8409580B2, “Therapeutic vaccine targeted against P-glycoprotein 170 for inhibiting multidrug resistance in the treatment of cancers” (AC Immune SA, priority 2003, dated 2013)
Ends that are not written are not given here.

What was measured:
mice = assay: Immunogenicity of di- and tetrapalmitoylated conjugates in liposomes: antibody detection by Dot Blot and antibody titer; type: in vivo
From the text: In order to further understand the degree of immunogenicity of the conjugates according to the invention, two types of conjugates were produced and tested. The first type of conjugate corresponds to the synthetic sequences of the peptides derived from the extracellular loops of the murine P-170 protein, covalently coupled to four molecules of fatty acid containing a carbon chain of between C12 and C24, per molecule of peptide. The second type of conjugate is made up of a peptide coupled only to two molecules of fatty acid. This study is illustrated by means of a specific example of dipalmitoylated and tetrapalmitoylated conjugates.
Table III describes the sequences of the di- and tetrapalmitoylated conjugates corresponding to loops 1, 2 and 4 of the murine P-170 protein and also their immunogenic capacity measured through the detection of antibodies by the Dot Blot technique and also the antibody titer by fluorescence units. […] The mpp4 and mpp2 conjugates engender an immune response with an antibody titer in the region of 400 fluorescence units. […] In fact, the synthesis of this loop is very hard and long since there are many possible chemical terminations, or chemical rebridging which could explain the lack of immune response of this first batch of peptides. For the animal immunization trials, a further synthesis of the peptides, in particular of loop 1, was therefore carried out.
The conjugates according to the invention serving as antigenic molecules, diluted in PBS, are firstly deposited at ambient temperature onto nitrocellulose membranes. After 30 minutes, these antigenic molecules are blocked with 3 ml of a solution containing PBS-5% skim milk. The membranes are incubated for 2 hours at ambient temperature, without washing, with 24 μl of murine serum prediluted volume-for-volume with PBS, in 2 ml of PBS containing 1% of skim milk and 0.1% of tween 20. Said murine serum was taken during a period of 15 to 45 days after the third immunization. After three washes in PBS-1% skim milk-0.1% tween 20, the membranes are sequentially incubated for 1 hour at ambient temperature, in 3 ml of PBS-1% skim milk-0.1% tween 20 containing the peroxydase anti-mouse secondary antibody diluted to 1/3000, and then after 2 washes, in 3 ml of PBS-1% skim milk-0.1% tween 20. The membranes are then washed once for 10 minutes in PBS alone and kept in a refrigerator at 4° C. overnight, in 500 μl of PBS. A chemoluminescence peroxydase substrate (ECL™ kit, […] Pharmacie Biotech) is deposited at the surface of the membranes (0.125 ml/cm^2), and left for one minute, and the membranes are then drained off and placed in a “cold” cassette between 2 films of Saran®. The membranes are immediately exposed by autoradiography, the emitted light resulting from the reaction of oxidation of the luminol by the peroxydase being collected on KODAK X-OMAT films with varying times from a few minutes to 1 hour, depending on the strength of the signal. The antibody titers are estimated using a densitometer suitable for the above system. The sensitivity of the chemoluminescence reaction has a threshold for detection of the induced antibodies evaluated at 0.2 ng/ml under the experimental conditions.

B6D2F1 mice = assay: Immune response in vivo in B6D2F1 mice immunized with the vaccine preparations (anti-mpp1, mpp2, mpp4 antibody isotypes, Dot Blot); conditions: further synthesis of the peptide; compared with mpp2 and mpp4
Method: The mice were immunized three times, two weeks apart, by intraperitoneal injection with 200 μl of vaccine composition. This experimental protocol is carried out for the four preparations on groups of nine B6D2F1 mice (Iffa Credo, L'Arbresle, France).
To quantify by Dot Blot the various immunoglobulins induced by the immunization, 100 μl of blood were taken, from each mouse, from the retroorbital sinus one day before the booster and 15 days after the final injection. Each blood sample was then centrifuged and the serum isolated was used for the quantification.
The conjugates according to the invention serving as antigenic molecules, diluted in PBS, are firstly deposited at ambient temperature onto nitrocellulose membranes. After 30 minutes, these antigenic molecules are blocked with 3 ml of a solution containing PBS-5% skim milk. The membranes are incubated for 2 hours at ambient temperature, without washing, with 24 μl of murine serum prediluted volume-for-volume with PBS, in 2 ml of PBS containing 1% of skim milk and 0.1% of tween 20. Said murine serum was taken during a period of 15 to 45 days after the third immunization. […] The sensitivity of the chemoluminescence reaction has a threshold for detection of the induced antibodies evaluated at 0.2 ng/ml under the experimental conditions. […]

P388R cells = conditions: mice, same cancer model, 100 mg/kg/day (Pierré et al. 1992); cited from earlier work
[1] = trials for treatment of multidrug resistance (Stupp et al. 1998); cited from earlier work
cancer cells = conditions: by means of an increase in the invasive potential of the cancer cells; cited from earlier work
[2] = mice injected with liposomes containing the conjugate, first peptide synthesis

Compound: G-SRDDDMETKRQNEN-G-K-NH2 (GSRDDDMETKRQNENGK-NH2; also: two palmitic acids; listed as Mus musculus) [mpp′4]
- Ac titer fluorescence (mice; [2]): 100 fluorescence units
- antibody titer relative to the titer induced by mpp4 (mice; same sequence with two versus four palmityl residues): four times lower

Compound: K-G-GNMTDSFTKAEASILPSITNQSGPNSTLIISNSSLEEE-G-K-K-NH2 (KGGNMTDSFTKAEASILPSITNQSGPNSTLIISNSSLEEEGKK-NH2; also: four palmitic acids; listed as Mus musculus) [mpp1]
- antibody titers induced by the conjugate (B6D2F1 mice): significant and comparable in value to the antibody titers detected for the mpp2 and mpp4 conjugates
- Ac titer fluorescence (mice; [2]): <10 fluorescence units
- Detection of antibodies by Dot Blot (mice; [2]): no antibody was detected

Compound: C=CCNc1nc(NCC=C)nc(N2CCC(NCC(c3ccc(F)cc3)c3ccc(F)cc3)CC2)n1 [S9788, 6-[4-[2,2-di-(4-fluorophenyl)ethylamino]-1-piperidinyl]-N,N′-di-2-propenyl-1,3,5-triazine-2,4-diamine]
- increase in survival (P388R cells): 49%
- toxicity limiting use in clinical trials [1]: cardiac toxicity, ventricular arrhythmia and torsade de pointe

Compound: OCCN1CCN(CC/C=C2\c3ccccc3Sc3ccc(C(F)(F)F)cc32)CC1 [trans-flupenthixol]
- effect on mortality (cancer cells): can accelerate mortality

Compound: G-KVLTSFTNKELQAYAK-G-K-NH2 (GKVLTSFTNKELQAYAKGK-NH2; also: two palmitic acids; listed as Mus musculus) [mpp′2]
- Ac titer fluorescence (mice; [2]): <10 fluorescence units
